From ChEMBL document CHEMBL1201862, “PubChem BioAssay data set” (2004)
The source made the active and inactive calls.

Assays:
[1] = molecular target: T1, Corticotropin-releasing factor receptor 2/Corticotropin-releasing factor-binding protein (Homo sapiens, UniProt P24387+Q13324); test: activators of CRF receptor 2 with binding protein – uHTS hits, confirmation (AID 602473); assay type: functional; conditions: read-out: EC50_Mean
T1 sequence (Q13324 whole entry): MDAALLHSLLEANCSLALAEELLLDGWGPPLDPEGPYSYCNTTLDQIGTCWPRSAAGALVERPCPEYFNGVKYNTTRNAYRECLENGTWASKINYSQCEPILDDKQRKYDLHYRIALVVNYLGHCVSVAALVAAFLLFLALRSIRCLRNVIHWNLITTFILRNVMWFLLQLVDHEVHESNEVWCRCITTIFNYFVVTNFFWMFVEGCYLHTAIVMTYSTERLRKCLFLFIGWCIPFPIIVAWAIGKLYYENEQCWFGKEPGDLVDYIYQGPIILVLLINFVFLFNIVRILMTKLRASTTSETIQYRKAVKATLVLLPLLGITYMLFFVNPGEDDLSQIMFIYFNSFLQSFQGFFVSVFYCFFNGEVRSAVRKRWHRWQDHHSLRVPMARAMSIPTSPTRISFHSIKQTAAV
T1 sequence (P24387 whole entry): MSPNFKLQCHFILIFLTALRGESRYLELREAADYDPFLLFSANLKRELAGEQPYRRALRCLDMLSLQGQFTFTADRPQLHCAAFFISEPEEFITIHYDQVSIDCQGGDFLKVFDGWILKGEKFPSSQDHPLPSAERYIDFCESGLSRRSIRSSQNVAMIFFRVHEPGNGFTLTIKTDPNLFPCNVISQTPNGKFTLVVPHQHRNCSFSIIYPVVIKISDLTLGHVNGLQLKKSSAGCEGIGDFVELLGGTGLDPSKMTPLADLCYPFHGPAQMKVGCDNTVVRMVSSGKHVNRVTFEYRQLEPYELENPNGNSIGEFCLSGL

[2] = molecular target: T1, Corticotropin-releasing factor receptor 2/Corticotropin-releasing factor-binding protein; test: Dose Response confirmation of uHTS hits for small molecule antagonists of the CRF-binding protein and CRF-R2 receptor complex.; assay type: functional; conditions: read-out: IC50_Mean
[3] = molecular target: T2, Short transient receptor potential channel 4 (Mus musculus, UniProt Q9QUQ5); test: block of DAMGO-driven TRPC4 calcium entry – cell-based, HEK293 TRPC4/mu-opioid, Fluo-4 calcium, dose response (AID 434942); assay type: functional;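 further: potency of inhibitors blocking the TRPC4 calcium response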
T2 sequence (Q9QUQ5 whole entry): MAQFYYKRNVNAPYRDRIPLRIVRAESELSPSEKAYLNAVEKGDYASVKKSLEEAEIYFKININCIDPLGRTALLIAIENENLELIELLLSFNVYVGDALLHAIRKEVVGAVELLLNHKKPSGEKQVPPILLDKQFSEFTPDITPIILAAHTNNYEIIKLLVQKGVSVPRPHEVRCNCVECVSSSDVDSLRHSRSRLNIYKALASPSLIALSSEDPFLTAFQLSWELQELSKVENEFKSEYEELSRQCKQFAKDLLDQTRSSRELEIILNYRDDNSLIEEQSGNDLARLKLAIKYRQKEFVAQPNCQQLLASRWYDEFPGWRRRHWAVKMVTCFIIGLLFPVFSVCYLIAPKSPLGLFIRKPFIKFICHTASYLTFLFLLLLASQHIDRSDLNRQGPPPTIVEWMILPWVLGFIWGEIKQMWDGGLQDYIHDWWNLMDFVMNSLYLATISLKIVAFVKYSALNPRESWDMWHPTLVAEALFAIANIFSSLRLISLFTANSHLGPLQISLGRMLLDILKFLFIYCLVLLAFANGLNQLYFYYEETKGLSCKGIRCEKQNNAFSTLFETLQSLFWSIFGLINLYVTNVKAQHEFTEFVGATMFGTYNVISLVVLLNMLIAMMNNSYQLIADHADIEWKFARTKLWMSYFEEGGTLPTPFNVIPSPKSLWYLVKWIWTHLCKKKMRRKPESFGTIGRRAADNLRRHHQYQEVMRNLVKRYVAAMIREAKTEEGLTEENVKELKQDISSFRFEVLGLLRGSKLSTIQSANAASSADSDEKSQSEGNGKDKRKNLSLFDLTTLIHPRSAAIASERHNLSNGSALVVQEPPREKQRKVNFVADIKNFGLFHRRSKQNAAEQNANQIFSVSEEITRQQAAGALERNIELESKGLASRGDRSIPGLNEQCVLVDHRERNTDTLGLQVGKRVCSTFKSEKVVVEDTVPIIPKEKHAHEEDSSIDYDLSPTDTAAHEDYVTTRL

[4] = viability of PTEN-deleted HCT116 cells – cell-based, HCT116 PTEN knockout, dose response (AID 1047); assay type: functional;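 further: HCT116 colon tumor cells with PTEN knocked out; cells exposed to compound for 60 hours before readout; potency for loss of cell viability measured by luminescence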
[5] = viability of HCT116 lacking mutant beta-catenin – cell-based, human colon tumor, dose response (AID 1045); assay type: functional;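 further: HCT116 colon tumor cells with beta catenin knocked out; cells exposed to compound for 60 hours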
Cytochrome P450 2C9 = Cytochrome P450 2C9 (Homo sapiens, UniProt P11712)
Protein RecA = molecular target: T3, Protein RecA (Mycobacterium tuberculosis, UniProt P9WHJ3); test: Fluorescence Cell-Free Homogeneous Dose Retest to Identify Inhibitors of RecA-Intein Splicing Activity. [Related pubchem assays (depositor defined):AID2097, AID2223, AID489010, AID492950]; assay type: functional
T3 sequence (P9WHJ3 whole entry): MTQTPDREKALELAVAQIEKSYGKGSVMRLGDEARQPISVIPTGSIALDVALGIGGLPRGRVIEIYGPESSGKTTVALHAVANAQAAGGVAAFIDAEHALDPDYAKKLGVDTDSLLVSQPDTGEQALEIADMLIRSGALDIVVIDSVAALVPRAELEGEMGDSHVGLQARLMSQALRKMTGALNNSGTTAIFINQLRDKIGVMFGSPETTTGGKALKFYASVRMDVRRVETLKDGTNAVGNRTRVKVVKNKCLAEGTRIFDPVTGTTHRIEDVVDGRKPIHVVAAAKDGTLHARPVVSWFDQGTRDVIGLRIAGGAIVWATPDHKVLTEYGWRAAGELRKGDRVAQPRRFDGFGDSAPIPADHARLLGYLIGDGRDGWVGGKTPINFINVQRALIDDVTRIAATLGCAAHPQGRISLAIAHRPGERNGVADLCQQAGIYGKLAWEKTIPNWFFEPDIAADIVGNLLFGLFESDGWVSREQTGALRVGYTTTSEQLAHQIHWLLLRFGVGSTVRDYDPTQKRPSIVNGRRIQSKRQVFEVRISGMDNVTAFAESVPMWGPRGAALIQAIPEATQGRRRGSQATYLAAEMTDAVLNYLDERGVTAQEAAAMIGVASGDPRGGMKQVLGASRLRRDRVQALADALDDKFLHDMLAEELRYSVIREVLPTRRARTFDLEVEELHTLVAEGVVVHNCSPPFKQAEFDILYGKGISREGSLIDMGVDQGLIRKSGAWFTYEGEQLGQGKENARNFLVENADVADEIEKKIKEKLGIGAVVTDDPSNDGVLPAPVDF

[6] = molecular target: T4, Replicative DNA helicase DnaB (Mycobacterium tuberculosis, UniProt P9WMR3); test: DnaB intein splicing inhibitors, dose response, biochemical, cell-free fluorescence (AID 449749); assay type: functional
T4 sequence (P9WMR3 whole entry): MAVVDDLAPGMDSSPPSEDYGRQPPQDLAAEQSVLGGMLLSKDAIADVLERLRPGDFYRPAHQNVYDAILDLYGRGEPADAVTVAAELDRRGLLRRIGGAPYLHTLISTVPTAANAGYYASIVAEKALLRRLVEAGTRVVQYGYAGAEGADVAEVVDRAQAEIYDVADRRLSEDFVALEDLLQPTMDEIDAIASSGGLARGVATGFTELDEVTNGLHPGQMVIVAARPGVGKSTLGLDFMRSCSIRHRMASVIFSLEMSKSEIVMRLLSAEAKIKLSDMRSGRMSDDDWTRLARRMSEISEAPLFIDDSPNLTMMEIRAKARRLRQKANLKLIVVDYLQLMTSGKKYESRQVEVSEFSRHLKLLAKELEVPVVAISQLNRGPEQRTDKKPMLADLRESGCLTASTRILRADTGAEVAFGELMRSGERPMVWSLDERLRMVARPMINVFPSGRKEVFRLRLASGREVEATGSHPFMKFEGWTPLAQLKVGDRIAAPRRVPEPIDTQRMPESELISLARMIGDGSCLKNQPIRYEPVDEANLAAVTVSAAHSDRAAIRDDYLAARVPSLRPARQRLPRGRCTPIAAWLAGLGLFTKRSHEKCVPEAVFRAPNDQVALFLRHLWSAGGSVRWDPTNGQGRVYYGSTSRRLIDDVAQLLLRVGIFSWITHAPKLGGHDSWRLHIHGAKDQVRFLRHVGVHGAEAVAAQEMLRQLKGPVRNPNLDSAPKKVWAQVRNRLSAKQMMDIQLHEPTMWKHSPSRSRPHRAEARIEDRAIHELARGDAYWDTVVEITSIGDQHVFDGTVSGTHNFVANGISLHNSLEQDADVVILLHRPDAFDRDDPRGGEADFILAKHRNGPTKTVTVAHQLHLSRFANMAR

[7] = NIH-3T3 fibroblast cytotoxicity, dose response, cytotoxicity control, cell-based, fluorescence, Alamar Blue, secondary assay (AID 2327); assay type: functional;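 further: NIH-3T3 mouse fibroblasts cultured with fluconazole at 8 µg/mL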
[8] = fluconazole-exposed Candida albicans growth modulators – fluorescence, retest, confirmation (AID 2467); assay type: functional, cell-based

Cytochrome P450 2C9, sequence (P11712 whole entry): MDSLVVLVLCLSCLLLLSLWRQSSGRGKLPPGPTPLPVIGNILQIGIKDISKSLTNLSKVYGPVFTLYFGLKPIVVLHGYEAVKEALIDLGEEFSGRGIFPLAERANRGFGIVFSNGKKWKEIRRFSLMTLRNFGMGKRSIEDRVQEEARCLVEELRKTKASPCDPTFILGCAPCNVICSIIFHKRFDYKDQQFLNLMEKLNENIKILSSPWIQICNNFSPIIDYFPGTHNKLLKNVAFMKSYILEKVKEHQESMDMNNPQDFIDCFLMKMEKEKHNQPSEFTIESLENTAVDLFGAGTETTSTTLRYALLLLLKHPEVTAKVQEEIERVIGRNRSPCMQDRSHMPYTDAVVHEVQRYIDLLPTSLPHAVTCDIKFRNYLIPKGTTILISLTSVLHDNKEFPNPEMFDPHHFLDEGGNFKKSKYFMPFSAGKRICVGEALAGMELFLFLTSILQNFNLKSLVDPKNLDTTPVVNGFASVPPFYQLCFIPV

Row | Structure (SMILES) | EC50 [1] | IC50 [2] | EC50 [3] | further results
1 | COc1ccc(CCNC(=O)c2cccc3c2C(=O)N(C2CCCCC2)C3)cc1OC | > 53 µM (inactive) | 5.54 µM (active) |  | 
2 | COc1ccc(C(CNc2ccc(C(F)(F)F)cn2)N(C)C)cc1OC (stereo not given) |  |  | 0.299 µM (active) | 
3 | COc1ccc(C(=O)ON=C(N)Cc2ccc(Cl)cc2)cc1OC |  |  |  | EC50 [4]: 21.6 µM (active); EC50 [5]: 19.1 µM (active)
4 | Cc1nn(C)c(C)c1NC(=O)CSc1nc(C2CC2)nc2c1cnn2-c1ccccc1 |  |  |  | EC50 [4]: 5.78 µM (active); EC50 [5]: 10.8 µM (active)
5 | Cc1ccccc1N=C1N=C(S)N(c2ccccc2)C12CCCCC2 | > 53 µM (inactive) | > 47.1 µM (inactive) |  | 
6 | Cc1ccc(C[n+]2cc(-c3ccc(Cl)cc3)n3c2CCC3)cc1 |  |  | 2.37 µM (active) | 
7 | COc1ccc2c(c1)c(C(=O)O)c(C)n2-c1ccc(Cl)cc1 | > 53 µM (inactive) | > 47.1 µM (inactive) |  | 
8 | CCn1c(S)nnc1CCNC(=O)c1ccccc1Cl | > 53 µM (inactive) | > 47.1 µM (inactive) |  | AC50 (Cytochrome P450 2C9): 1.58 µM (inconclusive)
9 | Cc1sc2nc(CN(Cc3cccs3)C(=O)NC3CCCCC3)[nH]c(=O)c2c1C | > 53 µM (inactive) | 16.4 µM (active) |  | 
10 | CN(C)C(=O)c1ccc2c(c1[N+](=O)[O-])C(=O)c1ccccc1C2=O |  |  |  | EC50 [4]: 87 µM (active); EC50 [5]: 105 µM (active); EC50 (Protein RecA): 0.558 µM (active); AC50 [6]: 57.9 µM (active)
11 | O=C(O)CC(SCC(=O)Nc1ccc(Br)cc1)C(=O)O (stereo not given) | > 53 µM (inactive) | > 47.1 µM (inactive) |  | 
12 | Cc1ccc(Cn2c(=N)n(CC(O)c3ccco3)c3ccccc32)cc1 (stereo not given) |  |  | 1.88 µM (active) | 
13 | CC(C)c1noc2ncc(C(=O)c3cc(Cl)cc(Cl)c3O)cc12 |  |  |  | EC50 [7]: > 160 µM (inactive); EC50 [8]: 3.63 µM (active)
14 | Cc1noc(NS(=O)(=O)c2ccc(NC(=O)CS(=O)(=O)c3ccccc3)cc2)c1C | > 53 µM (inactive) | > 47.1 µM (inactive) |  | 
15 | CCOc1cc(-c2nc(-c3cc(OC)c(OC)c(OC)c3)no2)cc(OCC)c1OCC |  |  |  | EC50 [7]: > 160 µM (inactive); EC50 [8]: > 38 µM (not active)
16 | C=CCSc1nc(-c2ccc(OCCC)cc2)n[nH]1 |  |  |  | EC50 [7]: > 150 µM (inactive); EC50 [8]: > 38 µM (not active)

Row | Structure (SMILES) | EC50 [1] | IC50 [2] | EC50 [3] | further results
17 | CCN(CC)C(=O)/C(=C/c1cn(S(=O)(=O)N(C)C)c2ccccc12)NC(=O)c1ccc(OC)cc1 | > 53 µM (inactive) | > 47.1 µM (inactive) |  | 
18 | COc1ccc(C2NC(C(=O)O)Cc3c2[nH]c2ccccc32)cc1CN1CCN(c2ccc(F)cc2)CC1 (stereo not given) |  |  | 0.531 µM (active) | 
19 | CCOC(=O)c1oc2ccccc2c1CN1CCCCC1 |  |  | 4.22 µM (active) | 
20 | Clc1ccc(-n2nnnc2-c2cnc(-c3ccncc3)nc2-c2cccs2)cc1 |  |  |  | EC50 [4]: 16.9 µM (active); EC50 [5]: 21.1 µM (active)
21 | CC12CCC(C(=O)NNc3ccc([N+](=O)[O-])cc3)(CC1=O)C2(C)C (stereo not given) |  |  |  | EC50 [7]: > 150 µM (inconclusive); EC50 [8]: > 38 µM (not active)
22 | CCOC(=O)C1CCN(C2CCN(C(=O)c3oc4c(C)c(C)ccc4c3C)CC2)CC1 |  |  | 4.22 µM (active) | 
23 | Cc1cc(-c2sccc2C)nc(-n2cccc2)n1 |  |  | 7.5 µM (active) | 
24 | COc1cccc(C(=O)C2CCCN(Cc3cccn3-c3ccccn3)C2)c1 (stereo not given) |  |  | 6.68 µM (active) | 
25 | COc1ccc(CCN=C(N)S)cc1OC | > 53 µM (inactive) | > 47.1 µM (inactive) |  | 
26 | CC1CCC(NC(=O)c2ccc(/C=C3\Oc4ccccc4N(C)C3=O)cc2)CC1 (stereo not given) |  |  |  | EC50 [4]: 28 µM (active); EC50 [5]: 26.7 µM (active)
27 | CC(=O)NC1=NN(C(C)=O)C(C)(c2ccccn2)S1 (stereo not given) | > 53 µM (inactive) | > 47.1 µM (inactive) |  | 
28 | CN(Cc1cnn(C)c1)C(=O)c1ccc(OC2CCN(CCc3ccccc3)CC2)cc1 |  |  | 1.5 µM (active) | 
29 | Cc1ccc(C(=O)C=Cc2cccc(C)c2)cc1 | > 53 µM (inactive) | > 47.1 µM (inactive) |  | 
30 | CCCSC(=N)N/N=C/c1ccccc1O |  |  |  | EC50 [4]: 34.7 µM (active); EC50 [5]: 32.4 µM (active)
31 | CCCOc1ccc(Br)cc1/C=N/O |  |  | 1.68 µM (active) | 
